From US20250057963A1, “DISCOVERY OF PIPERLONGUMINE AS A NOVEL E3 LIGASE LIGAND” (University of Florida Research Foundation, Incorporated, priority 2021, published 2025)
Entries after “also recorded” stand apart in the source; their conditions may differ.

Columns and labels:
CDK9 = CDK9 (Homo sapiens, UniProt P50750); test: CDK9 degradation in MOLT4 cells (immunoblot); type: cell-based; design: endogenous in cells; host or cells: MOLT4, 293T, K562, NCI-H1299, LNCaP
Experimental: All the cell lines were maintained in a humidified incubator at 37° C. and 5% CO2.
Data analysis was performed using GraphPad Prism software (version 9) unless indicated otherwise. All graphs presented represent the mean±standard deviation of the mean (SD) unless otherwise stated.

CDK10 = biological target: T1, CDK10 (Homo sapiens, UniProt Q15131); test: CDK10 degradation in MOLT4 cells (TMT proteomics, immunoblot); type: cell-based
T1 construct: endogenous in cells; host or cells: MOLT4
T1 sequence (Q15131 whole entry): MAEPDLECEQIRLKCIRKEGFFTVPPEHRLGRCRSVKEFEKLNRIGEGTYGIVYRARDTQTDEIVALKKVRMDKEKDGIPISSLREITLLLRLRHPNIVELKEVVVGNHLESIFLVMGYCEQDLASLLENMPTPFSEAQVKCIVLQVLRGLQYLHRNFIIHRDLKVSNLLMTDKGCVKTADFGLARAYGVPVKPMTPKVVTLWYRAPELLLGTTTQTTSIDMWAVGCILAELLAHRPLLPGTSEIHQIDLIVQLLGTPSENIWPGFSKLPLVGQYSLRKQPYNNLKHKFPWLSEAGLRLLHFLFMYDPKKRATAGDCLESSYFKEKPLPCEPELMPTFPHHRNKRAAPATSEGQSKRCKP
Experimental: Cells were collected and lysed in RIPA lysis buffer (Cat. #BP-115DG, Boston Bio Products, Ashland, MA, USA) supplemented with protease and phosphatase inhibitor cocktails (Cat. #PPC1010, Sigma-Aldrich, St. Louis, MO, USA). Protein samples were made and immunoblotting was performed as described previously (Khan et al., 2019; Lv et al., 2021). Antibodies purchased from Cell Signaling Technologies (CST) and the dilutions are as follows: Biotin (Cat. No. 5571S, 1:1000), PARP (Cat. No. 9542S, 1:1000), c-Myc (Cat. No. 5605S, 1:1000), MCL1 (Cat. No. 5453S, 1:1000), and ALK (Cat. No. 3791S, 1:1000). KEAP1 antibody was purchased from Proteintech (Cat. No. 10503-2-AP, 1:1000). CDK9 antibody was purchased from Santa Cruz (Cat. No. sc-13130, 1:500). V5-tag antibody was purchased from Bethyl (Cat. No. A190-120P, 1:1000). j-actin antibody was purchased from MP Biomedicals (Cat. No. 8691001, 1:20 000).
Sample Preparation and LC-MS/MS analysis. […]
Data processing and analysis. Proteins were identified and MS3 reporter ions quantified using MaxQuant (version 2.0.3.0; Max Planck Institute) against the Homo sapiens UniprotKB database (March 2021) with a parent ion tolerance of 3 ppm, a fragment ion tolerance of 0.5 Da, and a reporter ion tolerance of 0.003 Da. […]

[1] = tested on: LNCaP prostate cancer cells and H1299 lung cancer cells; test: Cell killing (MTS) with or without KEAP1 siRNA knockdown; type: cell-based, Human; conditions: KEAP1 siRNA vs control siRNA 48 h; compound 0.1 mM (LNCaP) or 0.3 mM (H1299) for 24 h
Experimental: FIGS. 19A to 19B show percentages of cell killing in LNCaP (FIG. 19A) and H1299 (FIG. 19B) cells with or without KEAP1 knockdown. LNCaP and H1299 cells were treated with control siRNA or siRNAs targeting KEAP1 for 48 h and then reseeded and treated with indicated compound (0.1 mM for LNCaP cells and 0.3 mM for H1299 cells) for 24 h. The cell viability was then determined by MTS assay. The data are presented as mean±SD from three replicate cell cultures in a representative experiment. Data are representative of two independent experiments. Statistical significance was calculated with unpaired two-tailed Student's t-tests. **P<0.01; ***P<0.001; NS: not significant.
Viability (MTS) assays in various cancer cells followed the methods described in our previous report (Khan et al., 2019). The data were expressed as average % cell viability and fitted in non-linear regression curves using GraphPad Prism 9 (GraphPad Software, La Jolla, CA, USA).

Chain of CDK9 (P50750 whole entry): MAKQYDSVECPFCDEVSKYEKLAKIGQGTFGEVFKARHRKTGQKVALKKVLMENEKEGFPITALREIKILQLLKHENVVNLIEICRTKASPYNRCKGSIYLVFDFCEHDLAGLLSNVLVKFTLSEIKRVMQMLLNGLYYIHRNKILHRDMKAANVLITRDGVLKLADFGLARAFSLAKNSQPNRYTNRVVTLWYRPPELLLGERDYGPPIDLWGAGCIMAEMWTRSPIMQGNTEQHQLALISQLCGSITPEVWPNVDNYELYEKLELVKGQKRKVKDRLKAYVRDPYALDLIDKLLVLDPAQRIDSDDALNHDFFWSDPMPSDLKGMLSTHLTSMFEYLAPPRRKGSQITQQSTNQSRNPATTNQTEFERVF

955-induced CDK9 degradation after pre-treatment with PL or SNS-032 (CDK9): fully blocked
955-induced CDK9 degradation with E1 inhibitors PYR-41 and TAK-243 (CDK9): E1-dependent
955-induced CDK9 degradation with KEAP1 inhibitors CDDO-ME, CDDO-IM or DMF (CDK9): completely blocked
duration of CDK9 degradation effect in the time course (CDK9; 955 at 0.1 μM): at least 48 hours
time at which CDK9 was completely degraded (CDK9; 955 at 0.1 μM, time course): 8 h
time to almost complete degradation of CDK9 (CDK9; 955 at 0.1 μM, time course): ≤ 8 h
DC50 (CDK9; 16 h treatment, from ImageJ-quantified Western blots): 9 nM
duration of CDK9 degradation after removal (washout) of 955 (CDK9; washout): up to 18 h
SMILES: COc1cc(/C=C/C(=O)N2CCC=CC2=O)cc(OC)c1OCCN1CCN(C(=O)CN2CCC(C(=O)Nc3ncc(SCc4ncc(C(C)(C)C)o4)s3)CC2)CC1 [compound 955, (E)-N-(5-(((5-(tert-butyl)oxazol-2-yl)methyl)thio)thiazol-2-yl)-1-(2-(4-(2-(2,6-dimethoxy-4-(3-oxo-3-(6-oxo-3,6-dihydropyridin-1(2H)-yl)prop-1-en-1-yl)phenoxy)ethyl)piperazin-1-yl)-2-oxoethyl)piperidine-4-carboxamide]
955-induced CDK9 degradation after pre-treatment with autophagy/lysosome inhibitor Baf-A1 or chloroquine (CDK9): could not block CDK9 degradation; also recorded: does not block CDK9 degradation
955-induced CDK9 degradation after pre-treatment with neddylation inhibitor MLN4924 (CDK9): could be blocked; also recorded: blocks 955-induced CDK9 degradation
955-induced CDK9 degradation after pre-treatment with pan-caspase inhibitor QVD (CDK9): could not block CDK9 degradation; also recorded: does not block CDK9 degradation
955-induced CDK9 degradation after pre-treatment with proteasome inhibitor MG132 or bortezomib (CDK9): could be blocked; also recorded: can be blocked
CDK9 degradation with short-term treatment (CDK9; 6 h treatment): potently degraded CDK9; also recorded: able to potently degrade CDK9
CDK9 degradation (CDK9; immunoblot): only 955, degraded CDK9; also recorded: can induce CDK9 degradation
dependence of CDK10 degradation (MG132, MLN4924 pre-treatment) (CDK10): UPS—and CRL-dependent manner; also recorded: proteasome- and CRL-dependent manner
CDK10 degradation (CDK10; 0.1 μM 955, 1 μM SNS-032): significantly decreased CDK10; also recorded: potently degrade CDK10
effect of KEAP1 knockdown on cytotoxicity of the compound [1]: attenuated the cytotoxicity
